Results taken from patent US6949571B2, “1,2-dihydropyridine compounds, process for preparation of the same and use thereof” (Eisai Co., Ltd., priority 2000, dated 2005).

test system: AMPA receptor; details: Table 2; suppression of AMPA-induced calcium influx into nerve cells
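Note: primary rat embryonic cortical neurons grown on an astrocyte layer in 96-well plates, used after at least 8 to 10 days in culture, Fura2-AM fluorescence ratio at 340/380 nm excitation.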

Nc1ccccc1-c1cc(-c2ccccn2)cn(-c2ccccc2)c1=O [Example 219, 3-(2-Aminophenyl)-1-phenyl-5-(2-pyridyl)-1,2-dihydropyridin-2-one] and CC(=O)c1ccccc1-c1cc(-c2ccccn2)cn(-c2ccccc2)c1=O [Example 272, 3-(2-Acetylphenyl)-5-(2-pyridyl)-1-phenyl-1,2-dihydropyridin-2-one] are within 1.5-fold of each other in IC50: 3700 nM for the first, 3300 nM for the second.

First: Nc1cccc(-c2cc(-c3ccccn3)cn(-c3ccccc3)c2=O)c1 [Example 220, 3-(3-Aminophenyl)-1-phenyl-5-(2-pyridyl)-1,2-dihydropyridin-2-one]
Second: O=c1c(-c2cccc(O)c2)cc(-c2ccccn2)cn1-c1ccccc1 [Example 237, 3-(3-Hydroxyphenyl)-1-phenyl-5-(2-pyridyl)-1,2-dihydropyridin-2-one]
The IC50 of the first is 2.5-fold lower: 600 nM for the first, 1500 nM for the second.

Compared with Nc1ccc(-c2cc(-c3ccccn3)cn(-c3ccccc3)c2=O)cc1 [Example 221, 3-(4-Aminophenyl)-1-phenyl-5-(2-pyridyl)-1,2-dihydropyridin-2-one], O=c1c(-c2ccc(O)cc2)cc(-c2ccccn2)cn1-c1ccccc1 [Example 238, 3-(4-Hydroxyphenyl)-1-phenyl-5-(2-pyridyl)-1,2-dihydropyridin-2-one] is 12-fold lower in IC50: 7100 nM for the first, 600 nM for the second.

First: Cc1ccc(-n2cc(-c3ccccn3)cc(-c3ccccc3C#N)c2=O)cc1N [Example 222, 3-(2-Cyanophenyl)-5-(2-pyridyl)-1-(2-aminotoluen-4-yl)-1,2-dihydropyridin-2-one]
Second: N#Cc1ccccc1-c1cc(-c2ccccn2)cn(-c2ccc([N+](=O)[O-])cc2)c1=O [Example 252, 3-(2-Cyanophenyl)-1-(4-nitrophenyl)-5-(2-pyridyl)-1,2-dihydropyridin-2-one]
The IC50 of the first is 1.5-fold lower: 200 nM for the first, 300 nM for the second.

Going from CS(=O)(=O)Nc1ccccc1-c1cc(-c2ccccn2)cn(-c2ccccc2)c1=O [Example 226, 3-[2-(Methylsulfonylamino)phenyl]-1-phenyl-5-(2-pyridyl)-1,2-dihydropyridin-2-one] to CC(=O)Nc1ccccc1-c1cc(-c2ccccn2)cn(-c2ccccc2)c1=O [Example 230, 3-[2-(Acetylamino)phenyl]-1-phenyl-5-(2-pyridyl)-1,2-dihydropyridin-2-one], the IC50 falls from 9500 nM to 4000 nM (2.4-fold). The second is the more potent here.

Compared with CS(=O)(=O)Nc1ccc(-c2cc(-c3ccccn3)cn(-c3ccccc3)c2=O)cc1 [Example 227, 3-[4-(Methanesulfonylamino)phenyl]-1-phenyl-5-(2-pyridyl)-1,2-dihydropyridin-2-one], CS(=O)(=O)Nc1cccc(-c2cc(-c3ccccn3)cn(-c3ccccc3)c2=O)c1 [Example 228, 3-[3-(Methanesulfonylamino)phenyl]-1-phenyl-5-(2-pyridyl)-1,2-dihydropyridin-2-one] is 1.5-fold higher in IC50: 1800 nM for the first, 2700 nM for the second. The first is the more potent here.

CC(=O)Nc1cccc(-c2cc(-c3ccccc3C#N)c(=O)n(-c3ccccc3)c2)n1 [Example 229, 5-[(6-Acetylamino)pyridin-2-yl]-3-(2-cyanophenyl)-1-phenyl-1,2-dihydropyridin-2-one] and N#Cc1ccccc1-c1cc(-c2cccc(C(N)=O)n2)cn(-c2ccccc2)c1=O [Example 235, 5-[(6-Aminocarbonyl)pyridin-2-yl]-3-(2-cyanophenyl)-1-phenyl-1,2-dihydropyridin-2-one] are within 1.5-fold of each other in IC50: 4200 nM for the first, 4400 nM for the second.

CC(=O)Nc1cccc(-c2cc(-c3ccccn3)cn(-c3ccccc3)c2=O)c1 [Example 232, 3-[3-(Acetylamino)phenyl]-1-phenyl-5-(2-pyridyl)-1,2-dihydropyridin-2-one] and CN(C)CCOc1cccc(-c2cc(-c3ccccn3)cn(-c3ccccc3)c2=O)c1 [Example 247, 3-[3-(Dimethylaminoethoxy)phenyl]-1-phenyl-5-(2-pyridyl)-1,2-dihydropyridin-2-one] are within 1.5-fold of each other in IC50: 4300 nM for the first, 3600 nM for the second.

First: CN(C)c1ccc(-c2cc(-c3ccccn3)cn(-c3ccccc3)c2=O)cc1 [Example 234, 3-(4-Dimethylaminophenyl)-1-phenyl-5-(2-pyridyl)-1,2-dihydropyridin-2-one]
Second: CN(C)CCOc1ccc(-c2cc(-c3ccccn3)cn(-c3ccccc3)c2=O)cc1 [Example 248, 3-[4-(Dimethylaminoethoxy)phenyl]-1-phenyl-5-(2-pyridyl)-1,2-dihydropyridin-2-one]
The IC50 of the first is 3.8-fold lower: 900 nM for the first, 3400 nM for the second. The first is the more potent here.

Going from N#Cc1cccc(-c2cc(-c3ccccc3C#N)c(=O)n(-c3ccccc3)c2)n1 [Example 236, 3-(2-Cyanophenyl)-5-(2-cyanopyridin-6-yl)-1-phenyl-1,2-dihydropyridin-2-one] to CN(C)CCOc1cccc(-n2cc(-c3ccccn3)cc(-c3ccccc3C#N)c2=O)c1 [Example 239, 3-(2-Cyanophenyl)-1-[3-(dimethylaminoethoxy)phenyl]-5-(2-pyridyl)-1,2-dihydropyridin-2-one], the IC50 falls from 600 nM to 300 nM (2-fold).

Compared with N#Cc1ccccc1-c1cc(-c2ccccn2)cn(-c2cccc(OCCN3CCCCC3)c2)c1=O [Example 240, 3-(2-Cyanophenyl)-1-[3-(piperidinoethoxy)phenyl]-5-(2-pyridyl)-1,2-dihydropyridin-2-one], N#Cc1ccccc1-c1cc(-c2ccccn2)cn(-c2cccc(OCCN3CCCC3)c2)c1=O [Example 241, 3-(2-Cyanophenyl)-1-[3-(pyrrolidinoethoxy)phenyl]-5-(2-pyridyl)-1,2-dihydropyridin-2-one] is 4-fold higher in IC50: 100 nM for the first, 400 nM for the second. The first is the more potent here.

First: CC(C)N(CCOc1cccc(-n2cc(-c3ccccn3)cc(-c3ccccc3C#N)c2=O)c1)C(C)C [Example 242, 3-(2-Cyanophenyl)-1-[3-(diisopropylaminoethoxy)phenyl]-5-(2-pyridyl)-1,2-dihydropyridin-2-one]
Second: CN(C)CCCOc1cccc(-n2cc(-c3ccccn3)cc(-c3ccccc3C#N)c2=O)c1 [Example 243, 3-(2-Cyanophenyl)-1-[3-(dimethylaminopropyloxy)phenyl]-5-(2-pyridyl)-1,2-dihydropyridin-2-one]
The IC50 of the first is 2.4-fold lower: 500 nM for the first, 1200 nM for the second. The first is the more potent here.

Compared with N#Cc1ccccc1-c1cc(-c2ccccn2)cn(-c2cccc(OCCCN3CCCCC3)c2)c1=O [Example 244, 3-(2-Cyanophenyl)-1-[3-(piperidinopropyloxy)phenyl]-5-(2-pyridyl)-1,2-dihydropyridin-2-one], N#Cc1ccccc1-c1cc(-c2ccccn2)cn(-c2cccc(OCCCCN3CCCCC3)c2)c1=O [Example 249, 3-(2-Cyanophenyl)-1-[3-(4-piperidinobutyl-1-oxy)phenyl]-5-(2-pyridyl)-1,2-dihydropyridin-2-one] is 6-fold lower in IC50: 1800 nM for the first, 300 nM for the second.

N#Cc1ccccc1-c1cc(-c2ccccn2)cn(-c2cccc(OCCN3CCOCC3)c2)c1=O [Example 245, 3-(2-Cyanophenyl)-1-[3-(morpholinoethoxy)phenyl]-5-(2-pyridyl)-1,2-dihydropyridin-2-one] and N#Cc1ccccc1-c1cc(-c2ccccn2)cn(-c2cccc(CN3CCCC3)c2)c1=O [Example 250, 3-(2-Cyanophenyl)-1-[3-(pyrrolidinomethyl)phenyl]-5-(2-pyridyl)-1,2-dihydropyridin-2-one] are within 1.5-fold of each other in IC50: 1200 nM for the first, 900 nM for the second.

CCN(CC)CCOc1cccc(-n2cc(-c3ccccn3)cc(-c3ccccc3C#N)c2=O)c1 [Example 246, 3-(2-Cyanophenyl)-1-[3-(diethylaminoethoxy)phenyl]-5-(2-pyridyl)-1,2-dihydropyridin-2-one] and CC(=O)N1CCN(Cc2cccc(-n3cc(-c4ccccn4)cc(-c4ccccc4C#N)c3=O)c2)CC1 [Example 251, 1-[3-[(4-Acetylpiperazino)methyl]phenyl]-3-(2-cyanophenyl)-5-(2-pyridyl)-1,2-dihydropyridin-2-one] are within 1.5-fold of each other in IC50: 1100 nM for the first, 900 nM for the second.

Compared with O=c1c(-c2cnccn2)cc(-c2ccccn2)cn1-c1ccccc1 [Example 253, 1-Phenyl-3-(2-pyrazyl)-5-(2-pyridyl)-1,2-dihydropyridin-2-one], O=c1c(-c2ccncn2)cc(-c2ccccn2)cn1-c1ccccc1 [Example 256, 1-Phenyl-3-(4-pyrimidinyl)-5-(2-pyridyl)-1,2-dihydropyridin-2-one] is 3.9-fold lower in IC50: 4700 nM for the first, 1200 nM for the second.

First: O=c1c(-c2nccs2)cc(-c2ccccn2)cn1-c1ccccc1 [Example 255, 1-Phenyl-5-(2-pyridyl)-3-(2-thiazoyl)-1,2-dihydropyridin-2-one]
Second: O=c1c(-c2cscn2)cc(-c2ccccn2)cn1-c1ccccc1 [Example 267, 1-Phenyl-5-(2-pyridyl)-3-(thiazol-4-yl)-1,2-dihydropyridin-2-one]
The IC50 of the first is 2-fold lower: 500 nM for the first, 1000 nM for the second.

First: O=c1c(-c2cncnc2)cc(-c2ccccn2)cn1-c1ccccc1 [Example 257, 1-Phenyl-3-(5-pyrimidinyl)-5-(2-pyridyl)-1,2-dihydropyridin-2-one]
Second: O=c1c(-c2ccnnc2)cc(-c2ccccn2)cn1-c1ccccc1 [Example 259, 1-Phenyl-3-(4-pyridazyl)-5-(2-pyridyl)-1,2-dihydropyridin-2-one]
The IC50 of the first is 1.9-fold higher: 3700 nM for the first, 2000 nM for the second. The second is the more potent here.

Compared with COc1cccc(-c2cc(-c3ccccn3)cn(-c3ccccc3)c2=O)n1 [Example 260, 3-(2-Methoxypyridin-6-yl)-1-phenyl-5-(2-pyridyl)-1,2-dihydropyridin-2-one], O=C1C=C(c2cc(-c3ccccn3)cn(-c3ccccc3)c2=O)CCC1 [Example 268, 3-(3-Oxo-1-cyclohexen-1-yl)-1-phenyl-5-(2-pyridyl)-1,2-dihydropyridin-2-one] is 1.6-fold higher in IC50: 2700 nM for the first, 4200 nM for the second. The first is the more potent here.

O=c1c(-c2cccnc2F)cc(-c2ncccn2)cn1-c1cccnc1 [Example 263, 3-(2-Fuluoropyridin-3-yl)-1-(3-pyridyl)-5-(2-pyrimidinyl)-1,2-dihydropyridin-2-one] and N#Cc1ncccc1-c1cc(-c2ncccn2)cn(-c2cccnc2)c1=O [Example 265, 3-(2-Cyanopyridin-3-yl)-1-(3-pyridyl)-5-(2-pyrimidinyl)-1,2-dihydropyridin-2-one] are within 1.5-fold of each other in IC50: 1000 nM for the first, 700 nM for the second.

First: N#Cc1ccccc1-c1cc(-c2ncccn2)cn(-c2cccc([N+](=O)[O-])c2)c1=O [Example 266, 3-(2-Cyanophenyl)-1-(3-nitrophenyl)-5-(2-pyrimidinyl)-1,2-dihydropyridin-2-one]
Second: O=c1c(C2=COCCO2)cc(-c2ccccn2)cn1-c1ccccc1 [Example 269, 3-(5,6-Dihydro-1,4-dioxin-2-yl)-1-phenyl-5-(2-pyridyl)-1,2-dihydropyridin-2-one]
The IC50 of the first is 19-fold lower: 100 nM for the first, 1900 nM for the second.
